One series has as its system MCF-7 cells. To be noted: human.
A further series can be described thus: in vitro. The settings on record: plasma.
Series [1] can be described thus: HPLC stability study in phosphate buffer. The settings on record: pH range 4–9, 12 h.
The test system of series [2] is MCF-7 human breast cancer cell line. Description: Alamar Blue assay for antiproliferative effects. Format: cell-based. The settings on record: Homo sapiens, MCF7, 72 h, read-out: IC50 (μM), antiproliferative effects.

Regarding `CC/C(=C(\c1ccc(O)cc1)c1ccc(OCCN(C)C(=O)CCC(=O)Oc2cc(/C=C\c3cc(OC)c(OC)c(OC)c3)ccc2OC)cc1)c1ccccc1` [Compound 16b, N-(2-{4-[(Z)-1-(4-Hydroxyphenyl)-2-phenylbut-1-enyl]phenoxy}ethyl)-N-methyl succinamic acid 2-methoxy-5-[(Z)-2-(3,4,5-trimethoxyphenyl)vinyl]phenyl ester], the “remained intact in plasma at 12 h” value is on record as 77%. For the same compound, the “cytotoxicity (LDH assay)” value in the series with MCF-7 cells is listed as 4.1%. In the series “in vitro”, the half-life (commonly the time needed for the level to fall by half in the phase considered) is over 48 h. The “remained at 12 h” value in series [1] was over 90%. Besides, the IC50 (usually the concentration that inhibits the measured activity by half) in series [2] worked out at 0.0057 µM.
